{"source": "ChEMBL document CHEMBL1275378", "about": "“Exploration of the active site of neuronal nitric oxide synthase by the design and synthesis of pyrrolidinomethyl 2-aminopyridine derivatives” (J Med Chem, 2010)", "key": {"[1]": {"assay": "Selectivity ratio of IC50 for rat recombinant nNOS to IC50 for mouse recombinant iNOS"}, "[2]": {"assay": "Selectivity ratio of IC50 for rat recombinant nNOS to IC50 for bovine recombinant eNOS"}, "[3]": {"target": "T1, Nitric oxide synthase 3 (Bos taurus, UniProt P29473)", "T1 sequence (P29473 whole entry)": "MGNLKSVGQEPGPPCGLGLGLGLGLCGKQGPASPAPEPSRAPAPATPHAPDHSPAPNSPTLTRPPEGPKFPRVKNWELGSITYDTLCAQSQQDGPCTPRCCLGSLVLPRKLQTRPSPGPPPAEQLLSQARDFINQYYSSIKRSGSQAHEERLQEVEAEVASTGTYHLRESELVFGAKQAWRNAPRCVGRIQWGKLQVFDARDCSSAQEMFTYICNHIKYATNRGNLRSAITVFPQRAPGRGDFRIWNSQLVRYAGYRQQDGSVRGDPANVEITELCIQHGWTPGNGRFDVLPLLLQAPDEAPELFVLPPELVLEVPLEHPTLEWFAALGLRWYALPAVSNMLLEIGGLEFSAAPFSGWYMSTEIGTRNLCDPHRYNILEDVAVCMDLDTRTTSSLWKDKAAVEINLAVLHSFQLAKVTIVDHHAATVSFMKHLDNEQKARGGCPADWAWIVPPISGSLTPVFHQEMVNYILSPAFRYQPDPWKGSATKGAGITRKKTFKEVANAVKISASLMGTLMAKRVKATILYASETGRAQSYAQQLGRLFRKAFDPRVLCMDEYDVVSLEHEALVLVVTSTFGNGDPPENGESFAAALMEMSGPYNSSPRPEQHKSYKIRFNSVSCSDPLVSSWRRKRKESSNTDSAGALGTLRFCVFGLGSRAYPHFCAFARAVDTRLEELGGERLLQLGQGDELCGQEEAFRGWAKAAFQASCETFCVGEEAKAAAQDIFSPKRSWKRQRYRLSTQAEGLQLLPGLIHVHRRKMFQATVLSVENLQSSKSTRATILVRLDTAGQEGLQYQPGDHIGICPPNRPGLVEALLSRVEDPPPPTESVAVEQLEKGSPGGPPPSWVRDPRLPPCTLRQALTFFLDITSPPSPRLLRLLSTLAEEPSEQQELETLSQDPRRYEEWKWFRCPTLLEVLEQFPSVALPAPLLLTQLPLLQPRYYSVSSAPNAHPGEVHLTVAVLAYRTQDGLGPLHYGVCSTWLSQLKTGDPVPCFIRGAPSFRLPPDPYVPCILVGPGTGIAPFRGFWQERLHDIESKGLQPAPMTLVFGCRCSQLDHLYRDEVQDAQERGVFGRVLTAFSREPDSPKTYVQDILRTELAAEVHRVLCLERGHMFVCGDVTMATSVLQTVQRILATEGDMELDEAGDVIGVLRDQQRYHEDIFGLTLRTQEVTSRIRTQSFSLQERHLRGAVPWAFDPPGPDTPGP", "assay": "Inhibition of bovine recombinant eNOS"}}, "data": [{"smiles": "Cc1cc(N)nc(C[C@H]2CNC[C@@H]2NCCCO)c1", "note": "(racemic)", "values": [{"measurement": "Ratio", "setting": "[1]", "value": 8}]}, {"smiles": "NCCN1C[C@H](Cc2cccc(N)n2)[C@H](NCCCc2ccccc2)C1", "note": "(racemic)", "values": [{"measurement": "Ratio", "setting": "[1]", "value": 13}, {"measurement": "nNOS selectivity over eNOS (eNOS IC50 / nNOS IC50)", "setting": "[2]", "value": 2.5}, {"measurement": "Ki", "setting": "[3]", "value": 122, "unit": "µM"}]}, {"smiles": "NCCN1C[C@H](Cc2cccc(N)n2)[C@@H](NCCCc2ccccc2)C1", "note": "(racemic)", "values": [{"measurement": "Ratio", "setting": "[1]", "value": 110}, {"measurement": "nNOS selectivity over eNOS (eNOS IC50 / nNOS IC50)", "setting": "[2]", "value": 43}, {"measurement": "Ki", "setting": "[3]", "value": 173, "unit": "µM"}]}, {"smiles": "NCCN1C[C@H](Cc2cccc(N)n2)[C@H](NCCCO)C1", "note": "(racemic)", "values": [{"measurement": "Ki", "setting": "[3]", "value": 849, "unit": "µM"}]}, {"smiles": "NCCN1C[C@H](Cc2cccc(N)n2)[C@@H](NCCCO)C1", "note": "(racemic)", "values": [{"measurement": "Ki", "setting": "[3]", "value": 1700, "unit": "µM"}]}, {"smiles": "CN(C)CCN[C@H]1CNC[C@@H]1Cc1cccc(N)n1", "note": "(racemic)", "values": [{"measurement": "Ratio", "setting": "[1]", "value": 20}, {"measurement": "nNOS selectivity over eNOS (eNOS IC50 / nNOS IC50)", "setting": "[2]", "value": 15}, {"measurement": "Ki", "setting": "[3]", "value": 242, "unit": "µM"}]}, {"smiles": "Nc1cccc(C[C@H]2CNC[C@@H]2NCCNCc2ccccc2)n1", "note": "(racemic)", "values": [{"measurement": "Ratio", "setting": "[1]", "value": 11.5}, {"measurement": "nNOS selectivity over eNOS (eNOS IC50 / nNOS IC50)", "setting": "[2]", "value": 201}, {"measurement": "Ki", "setting": "[3]", "value": 2910, "unit": "µM"}]}, {"smiles": "Nc1cccc(C[C@H]2CNC[C@@H]2NC[C@H](N)Cc2ccccc2)n1", "note": "(racemic)", "values": [{"measurement": "Ratio", "setting": "[1]", "value": 21.5}, {"measurement": "nNOS selectivity over eNOS (eNOS IC50 / nNOS IC50)", "setting": "[2]", "value": 105}, {"measurement": "Ki", "setting": "[3]", "value": 1450, "unit": "µM"}]}, {"smiles": "Nc1cccc(C[C@H]2CNC[C@@H]2NC[C@@H](N)Cc2ccccc2)n1", "note": "(racemic)", "values": [{"measurement": "Ratio", "setting": "[1]", "value": 20}, {"measurement": "nNOS selectivity over eNOS (eNOS IC50 / nNOS IC50)", "setting": "[2]", "value": 71}, {"measurement": "Ki", "setting": "[3]", "value": 1450, "unit": "µM"}]}, {"smiles": "Nc1cccc(C[C@H]2CNC[C@@H]2N[C@H]2CCNC2)n1", "note": "(racemic)", "values": [{"measurement": "Ratio", "setting": "[1]", "value": 18}, {"measurement": "nNOS selectivity over eNOS (eNOS IC50 / nNOS IC50)", "setting": "[2]", "value": 49}, {"measurement": "Ki", "setting": "[3]", "value": 625, "unit": "µM"}]}, {"smiles": "Nc1cccc(C[C@H]2CNC[C@@H]2N[C@@H]2CCNC2)n1", "note": "(racemic)", "values": [{"measurement": "Ratio", "setting": "[1]", "value": 12}, {"measurement": "nNOS selectivity over eNOS (eNOS IC50 / nNOS IC50)", "setting": "[2]", "value": 22}, {"measurement": "Ki", "setting": "[3]", "value": 460, "unit": "µM"}]}, {"smiles": "Nc1cccc(C[C@H]2CNC[C@@H]2N[C@H]2CCN(Cc3ccccc3)C2)n1", "note": "(racemic)", "values": [{"measurement": "Ratio", "setting": "[1]", "value": 12}, {"measurement": "nNOS selectivity over eNOS (eNOS IC50 / nNOS IC50)", "setting": "[2]", "value": 6}, {"measurement": "Ki", "setting": "[3]", "value": 109, "unit": "µM"}]}, {"smiles": "Nc1cccc(C[C@H]2CNC[C@@H]2N[C@@H]2CCN(Cc3ccccc3)C2)n1", "note": "(racemic)", "values": [{"measurement": "Ratio", "setting": "[1]", "value": 12}, {"measurement": "nNOS selectivity over eNOS (eNOS IC50 / nNOS IC50)", "setting": "[2]", "value": 7}, {"measurement": "Ki", "setting": "[3]", "value": 171, "unit": "µM"}]}, {"smiles": "Cc1cc(N)nc(C[C@H]2CNC[C@@H]2NCCNCc2ccc(C(F)(F)F)cc2)c1", "note": "(racemic)", "values": [{"measurement": "Ki", "setting": "[3]", "value": 61.2, "unit": "µM"}]}, {"smiles": "Cc1cc(N)nc(C[C@H]2CNC[C@@H]2NCCNCc2ccc(F)cc2)c1", "note": "(racemic)", "values": [{"measurement": "Ratio", "setting": "[1]", "value": 31}, {"measurement": "nNOS selectivity over eNOS (eNOS IC50 / nNOS IC50)", "setting": "[2]", "value": 90.5}, {"measurement": "Ki", "setting": "[3]", "value": 78.8, "unit": "µM"}]}, {"smiles": "Cc1cc(N)nc(C[C@H]2CNC[C@@H]2NCCNCc2cccc(C(F)(F)F)c2)c1", "note": "(racemic)", "values": [{"measurement": "Ratio", "setting": "[1]", "value": 79}, {"measurement": "nNOS selectivity over eNOS (eNOS IC50 / nNOS IC50)", "setting": "[2]", "value": 147}, {"measurement": "Ki", "setting": "[3]", "value": 109, "unit": "µM"}]}, {"smiles": "Cc1cccc(CNCCN[C@H]2CNC[C@@H]2Cc2cc(C)cc(N)n2)c1", "note": "(racemic)", "values": [{"measurement": "Ratio", "setting": "[1]", "value": 127}, {"measurement": "nNOS selectivity over eNOS (eNOS IC50 / nNOS IC50)", "setting": "[2]", "value": 306}, {"measurement": "Ki", "setting": "[3]", "value": 202, "unit": "µM"}]}, {"smiles": "Cc1cc(N)nc(C[C@H]2CNC[C@@H]2NCCNCc2ccc(Cl)c(Cl)c2)c1", "note": "(racemic)", "values": [{"measurement": "Ratio", "setting": "[1]", "value": 57}, {"measurement": "nNOS selectivity over eNOS (eNOS IC50 / nNOS IC50)", "setting": "[2]", "value": 153}, {"measurement": "Ki", "setting": "[3]", "value": 63.2, "unit": "µM"}]}, {"smiles": "Cc1cc(N)nc(C[C@H]2CNC[C@@H]2NCCNCc2ccc(Cl)cc2Cl)c1", "note": "(racemic)", "values": [{"measurement": "Ratio", "setting": "[1]", "value": 92}, {"measurement": "nNOS selectivity over eNOS (eNOS IC50 / nNOS IC50)", "setting": "[2]", "value": 158}, {"measurement": "Ki", "setting": "[3]", "value": 76.1, "unit": "µM"}]}, {"smiles": "Cc1cc(N)nc(C[C@H]2CNC[C@@H]2NC[C@H](C)NCc2ccc(Cl)cc2)c1", "note": "(racemic)", "values": [{"measurement": "Ratio", "setting": "[1]", "value": 35}, {"measurement": "nNOS selectivity over eNOS (eNOS IC50 / nNOS IC50)", "setting": "[2]", "value": 28}, {"measurement": "Ki", "setting": "[3]", "value": 16.5, "unit": "µM"}]}, {"smiles": "Cc1cc(N)nc(C[C@H]2CNC[C@H]2N(C)CCNCc2ccc(Cl)cc2)c1", "note": "(racemic)", "values": [{"measurement": "Ki", "setting": "[3]", "value": 58.1, "unit": "µM"}]}, {"smiles": "Cc1cc(N)nc(C[C@H]2CNC[C@@H]2NCCNCCc2ccc(F)cc2)c1", "note": "(racemic)", "values": [{"measurement": "Ratio", "setting": "[1]", "value": 190}, {"measurement": "nNOS selectivity over eNOS (eNOS IC50 / nNOS IC50)", "setting": "[2]", "value": 370}, {"measurement": "Ki", "setting": "[3]", "value": 44.1, "unit": "µM"}]}, {"smiles": "Cc1cc(N)nc(C[C@H]2CNC[C@@H]2NCCCc2ccccc2)c1", "note": "(racemic)", "values": [{"measurement": "Ratio", "setting": "[1]", "value": 11}, {"measurement": "nNOS selectivity over eNOS (eNOS IC50 / nNOS IC50)", "setting": "[2]", "value": 6}, {"measurement": "Ki", "setting": "[3]", "value": 85.2, "unit": "µM"}]}, {"smiles": "Nc1cccc(C[C@H]2CNC[C@@H]2O)n1", "note": "(racemic)", "values": [{"measurement": "Ratio", "setting": "[1]", "value": 4}, {"measurement": "nNOS selectivity over eNOS (eNOS IC50 / nNOS IC50)", "setting": "[2]", "value": 49}, {"measurement": "Ki", "setting": "[3]", "value": 341, "unit": "µM"}]}, {"smiles": "Cc1cc(N)nc(C[C@H]2CNC[C@@H]2NCCN)c1", "note": "(racemic; form 1) [listing 1 of 2 here]", "values": [{"measurement": "Ki", "setting": "[3]", "value": 866, "unit": "µM"}]}, {"smiles": "Cc1cc(N)nc(C[C@H]2CNC[C@@H]2NCCN)c1", "note": "(racemic; form 1) [listing 2 of 2 here]", "values": [{"measurement": "Ratio", "setting": "[1]", "value": 9}]}, {"smiles": "Cc1cc(N)nc(C[C@H]2CNC[C@@H]2NCCN)c1", "note": "(racemic; form 2) [listing 1 of 2 here]", "values": [{"measurement": "Ki", "setting": "[3]", "value": 263, "unit": "µM"}]}, {"smiles": "Cc1cc(N)nc(C[C@H]2CNC[C@@H]2NCCN)c1", "note": "(racemic; form 2) [listing 2 of 2 here]", "values": [{"measurement": "Ratio", "setting": "[1]", "value": 52.5}]}]}
